Legend:
Assay in all cases: cells
MDA-MB-453 = type: functional, cell-based, Homo sapiens; conditions: Homo sapiens, MDA-MB-453
Description: SANGER: Inhibition of human MDA-MB-453 cell growth in a cell viability assay.

BHY = type: functional, cell-based, Homo sapiens; conditions: Homo sapiens, BHY;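 note: cell growth inhibition read out by a viability assay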
Description: SANGER: Inhibition of human BHY cell growth in a cell viability assay.

RXF 393 = type: functional, cell-based; conditions: Homo sapiens;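 note: growth inhibition of human RXF 393 cells, read out with a cell viability assay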
Description: SANGER: Inhibition of human RXF393 cell growth in a cell viability assay.

K5 = type: functional, cell-based, Homo sapiens; conditions: Homo sapiens, K5
Description: SANGER: Inhibition of human K5 cell growth in a cell viability assay.

NCI-H510A = type: functional, cell-based; conditions: Homo sapiens;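 note: growth inhibition of NCI-H510A cells, read out with a cell viability assay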
Description: SANGER: Inhibition of human NCI-H510A cell growth in a cell viability assay.

KGN = type: functional, cell-based, Homo sapiens; conditions: Homo sapiens, KGN;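 note: growth inhibition of KGN cells, read out with a cell viability assay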
Description: SANGER: Inhibition of human KGN cell growth in a cell viability assay.

RH-1 = type: functional, cell-based, Homo sapiens; conditions: Homo sapiens, RH-1;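 note: growth inhibition of human RH-1 cells, read out with a cell viability assay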
Description: SANGER: Inhibition of human RH-1 cell growth in a cell viability assay.

TE-10 = type: functional, cell-based, Homo sapiens; conditions: Homo sapiens, TE-10;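 note: growth inhibition of TE-10 cells, measured by a cell viability assay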
Description: SANGER: Inhibition of human TE-10 cell growth in a cell viability assay.

MKN-45 = type: functional, cell-based, Homo sapiens; conditions: Homo sapiens, MKN-45;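 note: growth inhibition of human MKN-45 cells, measured with a cell viability assay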
Description: SANGER: Inhibition of human MKN45 cell growth in a cell viability assay.

MZ7-mel = type: functional, cell-based, Homo sapiens; conditions: Homo sapiens, MZ7-mel;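 note: growth inhibition of human MZ7-mel cells, measured by a cell viability assay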
Description: SANGER: Inhibition of human MZ7-mel cell growth in a cell viability assay.

RPMI-7951 = type: functional, cell-based, Homo sapiens; conditions: Homo sapiens, RPMI-7951
Description: SANGER: Inhibition of human RPMI-7951 cell growth in a cell viability assay.

JAR = type: functional, cell-based, Homo sapiens; conditions: Homo sapiens, JAR;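 note: growth inhibition of human JAR cells determined with a cell viability assay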
Description: SANGER: Inhibition of human JAR cell growth in a cell viability assay.

CAS-1 = type: functional, cell-based, Homo sapiens; conditions: Homo sapiens, CAS-1;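 note: growth inhibition of CAS-1 cells, measured with a cell viability assay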
Description: SANGER: Inhibition of human CAS-1 cell growth in a cell viability assay.

T47D = type: functional, cell-based, Homo sapiens; conditions: Homo sapiens, T47D;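 note: growth inhibition of human T47D cells, measured with a cell viability assay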
Description: SANGER: Inhibition of human T47D cell growth in a cell viability assay.

Capan-2 = type: functional, cell-based, Homo sapiens; conditions: Homo sapiens, Capan-2;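 note: Capan-2 cell growth inhibition, read out with a viability assay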
Description: SANGER: Inhibition of human Capan-2 cell growth in a cell viability assay.

SCC-9 = type: functional, cell-based, Homo sapiens; conditions: Homo sapiens, SCC-9;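 note: Read-out is a cell viability assay, with values giving inhibition of cell growth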
Description: SANGER: Inhibition of human SCC-9 cell growth in a cell viability assay.

KY821 = type: functional, cell-based; conditions: Homo sapiens;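 note: growth inhibition of human KY821 cells, read out by a cell viability assay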
Description: SANGER: Inhibition of human KY821 cell growth in a cell viability assay.

SW780 = type: functional, cell-based, Homo sapiens; conditions: Homo sapiens, SW780;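 note: growth inhibition of the cells, read out with a cell viability assay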
Description: SANGER: Inhibition of human SW780 cell growth in a cell viability assay.

Detroit 562 = type: functional, cell-based, Homo sapiens; conditions: Homo sapiens, Detroit 562;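 note: growth inhibition of human Detroit 562 cells, read out by a cell viability assay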
Description: SANGER: Inhibition of human Detroit562 cell growth in a cell viability assay.

KG-1 = type: functional, cell-based; conditions: Homo sapiens;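 note: growth inhibition of KG-1 cells, read out by a cell viability assay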
Description: SANGER: Inhibition of human KG-1 cell growth in a cell viability assay.

MKN-28 = type: functional, cell-based, Homo sapiens; conditions: Homo sapiens, MKN-28;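 note: cell viability assay read-out, IC50 reflects suppression of growth of human MKN-28 cells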
Description: SANGER: Inhibition of human MKN28 cell growth in a cell viability assay.

NKM-1 = type: functional, cell-based; conditions: Homo sapiens;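 note: growth inhibition of NKM-1 cells, read out with a cell viability assay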
Description: SANGER: Inhibition of human NKM-1 cell growth in a cell viability assay.

ES3 = type: functional, cell-based, Homo sapiens; conditions: Homo sapiens, ES3;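 note: growth inhibition of ES3 cells, read out with a cell viability assay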
Description: SANGER: Inhibition of human ES3 cell growth in a cell viability assay.

AM-38 = type: functional, cell-based, Homo sapiens; conditions: Homo sapiens, AM-38;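 note: growth inhibition of AM-38 cells of human origin, read out by a cell viability assay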
Description: SANGER: Inhibition of human AM-38 cell growth in a cell viability assay.

BHT-101 = type: functional, cell-based, Homo sapiens; conditions: Homo sapiens, BHT-101
Description: SANGER: Inhibition of human BHT-101 cell growth in a cell viability assay.

RT-112 = type: functional, cell-based, Homo sapiens; conditions: Homo sapiens, RT-112
Description: SANGER: Inhibition of human RT-112 cell growth in a cell viability assay.

ES5 = type: functional, cell-based, Homo sapiens; conditions: Homo sapiens, ES5;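 note: growth inhibition of human ES5 cells, read out by a cell viability assay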
Description: SANGER: Inhibition of human ES5 cell growth in a cell viability assay.

SAS = type: functional, cell-based, Homo sapiens; conditions: Homo sapiens, SAS;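 note: growth inhibition of SAS cells, read out with a cell viability assay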
Description: SANGER: Inhibition of human SAS cell growth in a cell viability assay.

RKO = type: functional, cell-based, Homo sapiens; conditions: Homo sapiens, RKO;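 note: growth inhibition of human RKO cells, read out with a cell viability assay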
Description: SANGER: Inhibition of human RKO cell growth in a cell viability assay.

NCI-H23 = type: functional, cell-based, Homo sapiens; conditions: Homo sapiens, NCI-H23;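 note: cell viability assay measuring growth inhibition of NCI-H23 cells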
Description: SANGER: Inhibition of human NCI-H23 cell growth in a cell viability assay.

CAL-85-1 = type: functional, cell-based; conditions: Homo sapiens;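 note: growth inhibition of human CAL-85-1 cells, read out with a cell viability assay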
Description: SANGER: Inhibition of human CAL-85-1 cell growth in a cell viability assay.

SCC-25 = type: functional, cell-based, Homo sapiens; conditions: Homo sapiens, SCC-25;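 note: growth inhibition of SCC-25 cells, measured with a cell viability assay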
Description: SANGER: Inhibition of human SCC-25 cell growth in a cell viability assay.

A 172 = type: functional, cell-based, Homo sapiens; conditions: Homo sapiens, A 172;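 note: growth inhibition of A172 cells, measured with a cell viability readout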
Description: SANGER: Inhibition of human A172 cell growth in a cell viability assay.

VMRC-RCZ = type: functional, cell-based; conditions: Homo sapiens;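 note: growth inhibition measured with a cell viability assay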
Description: SANGER: Inhibition of human VMRC-RCZ cell growth in a cell viability assay.

NCI-H2170 = type: functional, cell-based, Homo sapiens; conditions: Homo sapiens, NCI-H2170;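 note: cell viability assay measuring growth inhibition of human NCI-H2170 cancer cells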
Description: SANGER: Inhibition of human NCI-H2170 cell growth in a cell viability assay.

ONS-76 = type: functional, cell-based, Homo sapiens; conditions: Homo sapiens, ONS-76;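 note: growth inhibition of human ONS-76 cells, read out with a cell viability assay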
Description: SANGER: Inhibition of human ONS-76 cell growth in a cell viability assay.

P12-Ichikawa = type: functional, cell-based; conditions: Homo sapiens
SF-268 = type: functional, cell-based, Homo sapiens; conditions: Homo sapiens, SF-268;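 note: growth inhibition of SF-268 cells determined with a cell viability assay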
Description: SANGER: Inhibition of human SF268 cell growth in a cell viability assay.

MDA-MB-361 = type: functional, cell-based, Homo sapiens; conditions: Homo sapiens, MDA-MB-361
LNCaP-Clone-FGC = type: functional, cell-based, Homo sapiens; conditions: Homo sapiens, LNCaP-Clone-FGC
Description: SANGER: Inhibition of human LNCaP-Clone-FGC cell growth in a cell viability assay.

LB771-HNC = type: functional, cell-based, Homo sapiens; conditions: Homo sapiens, LB771-HNC;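 note: growth inhibition of LB771-HNC human cells, read out with a cell viability assay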
Description: SANGER: Inhibition of human LB771-HNC cell growth in a cell viability assay.

LS-123 = type: functional, cell-based, Homo sapiens; conditions: Homo sapiens, LS-123
Description: SANGER: Inhibition of human LS-123 cell growth in a cell viability assay.

KALS-1 = type: functional, cell-based, Homo sapiens; conditions: Homo sapiens, KALS-1;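 note: growth inhibition of KALS-1 cells, determined with a cell viability assay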
Description: SANGER: Inhibition of human KALS-1 cell growth in a cell viability assay.

KOSC-2 = type: functional, cell-based, Homo sapiens; conditions: Homo sapiens, KOSC-2;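 note: growth inhibition of KOSC-2 cells, read out by a cell viability assay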
Description: SANGER: Inhibition of human KOSC-2 cell growth in a cell viability assay.

GAK = type: functional, cell-based, Homo sapiens; conditions: Homo sapiens, GAK;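 note: cell growth inhibition read out by a cell viability assay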
Description: SANGER: Inhibition of human GAK cell growth in a cell viability assay.

COLO-678 = type: functional, cell-based, Homo sapiens; conditions: Homo sapiens, COLO-678
Description: SANGER: Inhibition of human COLO-678 cell growth in a cell viability assay.

NCI-H747 = type: functional, cell-based; conditions: Homo sapiens;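 note: growth inhibition of human NCI-H747 cells, read out by a cell viability assay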
Description: SANGER: Inhibition of human NCI-H747 cell growth in a cell viability assay.

PC-14 = type: functional, cell-based, Homo sapiens; conditions: Homo sapiens, PC-14;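 note: cell viability assay measuring inhibition of PC-14 cell growth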
Description: SANGER: Inhibition of human PC-14 cell growth in a cell viability assay.

NOMO-1 = type: functional, cell-based; conditions: Homo sapiens;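 note: growth inhibition of human NOMO-1 cells measured by a cell viability assay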
Description: SANGER: Inhibition of human NOMO-1 cell growth in a cell viability assay.

FTC-133 = type: functional, cell-based, Homo sapiens; conditions: Homo sapiens, FTC-133
KE-37 = type: functional, cell-based; conditions: Homo sapiens;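 note: growth inhibition of KE-37 cells, read out with a cell viability assay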
Description: SANGER: Inhibition of human KE-37 cell growth in a cell viability assay.

KS-1 = type: functional, cell-based, Homo sapiens; conditions: Homo sapiens, KS-1;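 note: growth inhibition of KS-1 cells, read out with a cell viability assay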
Description: SANGER: Inhibition of human KS-1 cell growth in a cell viability assay.

COc1cc([C@@H]2c3cc4c(cc3[C@@H](O[C@@H]3O[C@@H]5CO[C@@H](C)O[C@H]5[C@H](O)[C@H]3O)[C@H]3COC(=O)[C@H]23)OCO4)cc(OC)c1O [ETOPOSIDE]
IC50 (MDA-MB-453): > 16000 nM
IC50 (BHY): 1530 nM
IC50 (RXF 393): > 16000 nM
IC50 (K5): > 16000 nM
IC50 (NCI-H510A): 8650 nM
IC50 (KGN): 352 nM
IC50 (RH-1): 17.8 nM
IC50 (TE-10): 2380 nM
IC50 (MKN-45): 1870 nM
IC50 (MZ7-mel): 4300 nM
IC50 (RPMI-7951): 2290 nM
IC50 (JAR): > 16000 nM
IC50 (CAS-1): > 16000 nM
IC50 (T47D): 11700 nM
IC50 (Capan-2): > 16000 nM
IC50 (SCC-9): 850 nM
IC50 (KY821): > 16000 nM
IC50 (SW780): > 16000 nM
IC50 (Detroit 562): 11100 nM
IC50 (KG-1): 9720 nM
IC50 (MKN-28): 2550 nM
IC50 (NKM-1): 425 nM
IC50 (ES3): 628 nM
IC50 (AM-38): 3670 nM
IC50 (BHT-101): 3110 nM
IC50 (RT-112): 621 nM
IC50 (ES5): > 16000 nM
IC50 (SAS): 1270 nM
IC50 (RKO): 471 nM
IC50 (NCI-H23): 13200 nM
IC50 (CAL-85-1): 2160 nM
IC50 (SCC-25): 6630 nM
IC50 (A 172): 8650 nM
IC50 (VMRC-RCZ): 1970 nM
IC50 (NCI-H2170): 1850 nM
IC50 (ONS-76): 754 nM
IC50 (P12-Ichikawa): 317 nM
IC50 (SF-268): 2550 nM
IC50 (MDA-MB-361): > 16000 nM
IC50 (LNCaP-Clone-FGC): > 16000 nM
IC50 (LB771-HNC): > 16000 nM
IC50 (LS-123): 4020 nM
IC50 (KALS-1): 10300 nM
IC50 (KOSC-2): > 16000 nM
IC50 (GAK): > 16000 nM
IC50 (COLO-678): > 16000 nM
IC50 (NCI-H747): > 16000 nM
IC50 (PC-14): 9720 nM
IC50 (NOMO-1): 2190 nM
IC50 (FTC-133): 3590 nM
IC50 (KE-37): 40.7 nM
IC50 (KS-1): 334 nM

Cc1cnc(-c2cnc(NCCNc3ccc(C#N)cn3)nc2-c2ccc(Cl)cc2Cl)[nH]1 [LADUVIGLUSIB]
IC50 (MDA-MB-453): > 2560 nM
IC50 (BHY): > 2560 nM
IC50 (RXF 393): > 2560 nM
IC50 (K5): > 2560 nM
IC50 (NCI-H510A): > 2560 nM
IC50 (KGN): > 2560 nM
IC50 (RH-1): > 2560 nM
IC50 (TE-10): > 2560 nM
IC50 (MKN-45): > 2560 nM
IC50 (MZ7-mel): > 2560 nM
IC50 (RPMI-7951): > 2560 nM
IC50 (JAR): > 2560 nM
IC50 (CAS-1): > 2560 nM
IC50 (T47D): > 2560 nM
IC50 (Capan-2): > 2560 nM
IC50 (SCC-9): > 2560 nM
IC50 (KY821): > 2560 nM
IC50 (SW780): > 2560 nM
IC50 (Detroit 562): > 2560 nM
IC50 (KG-1): > 2560 nM
IC50 (MKN-28): > 2560 nM
IC50 (NKM-1): > 2560 nM
IC50 (ES3): > 2560 nM
IC50 (AM-38): > 2560 nM
IC50 (BHT-101): > 2560 nM
IC50 (RT-112): > 2560 nM
IC50 (ES5): > 2560 nM
IC50 (SAS): > 2560 nM
IC50 (RKO): > 2560 nM
IC50 (NCI-H23): > 2560 nM
IC50 (CAL-85-1): > 2560 nM
IC50 (SCC-25): > 2560 nM
IC50 (A 172): > 2560 nM
IC50 (VMRC-RCZ): > 2560 nM
IC50 (NCI-H2170): > 2560 nM
IC50 (ONS-76): > 2560 nM
IC50 (P12-Ichikawa): > 2560 nM
IC50 (SF-268): > 2560 nM
IC50 (MDA-MB-361): > 2560 nM
IC50 (LNCaP-Clone-FGC): > 2560 nM
IC50 (LB771-HNC): > 2560 nM
IC50 (LS-123): > 2560 nM
IC50 (KALS-1): > 2560 nM
IC50 (KOSC-2): > 2560 nM
IC50 (GAK): > 2560 nM
IC50 (COLO-678): > 2560 nM
IC50 (NCI-H747): > 2560 nM
IC50 (PC-14): > 2560 nM
IC50 (NOMO-1): > 2560 nM
IC50 (FTC-133): > 2560 nM
IC50 (KE-37): > 2560 nM
IC50 (KS-1): > 2560 nM

Reference: ChEMBL document CHEMBL1201861, “Genomics of Drug Sensitity in Cancer screening data, Wellcome Trust Sanger Institute”
